Data published in PubChem BioAssay AID250 (DTP/NCI, 2004).
Inconclusive results and toxic doses are left out.

Test system: BDF1 mice, L1210 leukemia sc, survival T/C
Assay: NCI In Vivo Anticancer Drug Screen. Data for tumor model L1210 Leukemia (subcutaneous) in B6D2F1 (BDF1) mice
Conditions: higher = longer survival
Summary of the method: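 Expressed as T/C: measurement in compound-treated, tumor-bearing mice relative to vehicle-treated control mice, based on survival or tumor size.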

CS(=O)(=O)Nc1ccc(Nc2c3ccccc3nc3cc(Cl)ccc23)cc1
T/C (endpoint: mean survival time, dose: 10.0 mg/kg/injection, schedule: Q01DX009 (sc), vehicle: saline): 104 % of control
T/C (endpoint: mean survival time, dose: 20.0 mg/kg/injection, schedule: Q01DX009 (sc), vehicle: saline): 112 % of control
T/C (endpoint: mean survival time, dose: 40.0 mg/kg/injection, schedule: Q01DX009 (sc), vehicle: saline): 113 % of control
T/C (endpoint: mean survival time, dose: 80.0 mg/kg/injection, schedule: Q01DX009 (sc), vehicle: saline): 124 % of control

CCCC(=O)OCC1OC(n2cnc3c(=S)nc(N)[nH]c32)C(OC(=O)CCC)C1OC(=O)CCC (stereo not given)
T/C (endpoint: median survival time, dose: 14.0 mg/kg/injection, schedule: Q01DX Z (sc), vehicle: carboxymethylcellulose (CMC)): 112 % of control
T/C (endpoint: median survival time, dose: 23.0 mg/kg/injection, schedule: Q01DX Z (sc), vehicle: carboxymethylcellulose (CMC)): 100 % of control
T/C (endpoint: median survival time, dose: 39.0 mg/kg/injection, schedule: Q01DX Z (sc), vehicle: carboxymethylcellulose (CMC)): 112 % of control
T/C (endpoint: median survival time, dose: 65.0 mg/kg/injection, schedule: Q01DX Z (sc), vehicle: carboxymethylcellulose (CMC)): 175 % of control
T/C (endpoint: median survival time, dose: 108.0 mg/kg/injection, schedule: Q01DX Z (sc), vehicle: carboxymethylcellulose (CMC)): 168 % of control
T/C (endpoint: median survival time, dose: 180.0 mg/kg/injection, schedule: Q01DX Z (sc), vehicle: carboxymethylcellulose (CMC)): 150 % of control

COc1cccc2c1C(=O)c1c(O)c3c(c(O)c1C2=O)CC(O)(C(=O)CO)CC3OC1CC(N)C(O)C(C)O1 (stereo not given)
T/C (endpoint: median survival time, dose: 11.4 mg/kg/injection, schedule: Q04DX003 (ip), vehicle: saline): 87 % of control
T/C (endpoint: median survival time, dose: 22.8 mg/kg/injection, schedule: Q04DX003 (ip), vehicle: saline): 89 % of control
T/C (endpoint: median survival time, dose: 45.6 mg/kg/injection, schedule: Q04DX003 (ip), vehicle: saline): 90 % of control
T/C (endpoint: median survival time, dose: 91.2 mg/kg/injection, schedule: Q04DX003 (ip), vehicle: saline): 95 % of control
T/C (endpoint: median survival time, dose: 182.4 mg/kg/injection, schedule: Q04DX003 (ip), vehicle: saline): 103 % of control

COc1cccc(/C=N/NC(N)=S)c1
T/C (endpoint: median survival time, dose: 78.0 mg/kg/injection, schedule: Q01DX Z (sc), vehicle: water): 100 % of control
T/C (endpoint: median survival time, dose: 130.0 mg/kg/injection, schedule: Q01DX Z (sc), vehicle: water): 105 % of control
T/C (endpoint: median survival time, dose: 216.0 mg/kg/injection, schedule: Q01DX Z (sc), vehicle: water): 100 % of control

O=c1[nH]c(=O)n(C2CC(O)C(CO)O2)cc1I (stereo not given)
T/C (endpoint: median survival time, dose: 14.0 mg/kg/injection, schedule: Q01DX Z (sc), vehicle: saline): 100 % of control
T/C (endpoint: median survival time, dose: 23.0 mg/kg/injection, schedule: Q01DX Z (sc), vehicle: saline): 100 % of control
T/C (endpoint: median survival time, dose: 39.0 mg/kg/injection, schedule: Q01DX Z (sc), vehicle: saline): 106 % of control
T/C (endpoint: median survival time, dose: 65.0 mg/kg/injection, schedule: Q01DX Z (sc), vehicle: saline): 103 % of control
T/C (endpoint: median survival time, dose: 108.0 mg/kg/injection, schedule: Q01DX Z (sc), vehicle: saline): 103 % of control
T/C (endpoint: median survival time, dose: 180.0 mg/kg/injection, schedule: Q01DX Z (sc), vehicle: saline): 100 % of control

O=C1OC(C(O)CO)C(O)=C1O (stereo not given)
T/C (endpoint: mean survival time, dose: 0.2 mg/kg/injection, schedule: Q08HX010 (ip), vehicle: other): 91 % of control
T/C (endpoint: mean survival time, dose: 0.25 mg/kg/injection, schedule: Q08HX010 (ip), vehicle: other): 95 % of control
T/C (endpoint: mean survival time, dose: 0.3 mg/kg/injection, schedule: Q08HX010 (ip), vehicle: other): 93 % of control
T/C (endpoint: mean survival time, dose: 0.5 mg/kg/injection, schedule: Q08HX010 (ip), vehicle: other): 84 % of control

CC(C)Sc1nc(N)nc2nc[nH]c12
T/C (endpoint: median survival time, dose: 23.0 mg/kg/injection, schedule: Q01DX Z (sc), vehicle: methylcellulose (MC)): 100 % of control
T/C (endpoint: median survival time, dose: 39.0 mg/kg/injection, schedule: Q01DX Z (sc), vehicle: methylcellulose (MC)): 100 % of control
T/C (endpoint: median survival time, dose: 65.0 mg/kg/injection, schedule: Q01DX Z (sc), vehicle: methylcellulose (MC)): 111 % of control
T/C (endpoint: median survival time, dose: 108.0 mg/kg/injection, schedule: Q01DX Z (sc), vehicle: methylcellulose (MC)): 111 % of control
T/C (endpoint: median survival time, dose: 180.0 mg/kg/injection, schedule: Q01DX Z (sc), vehicle: methylcellulose (MC)): 111 % of control
T/C (endpoint: median survival time, dose: 300.0 mg/kg/injection, schedule: Q01DX Z (sc), vehicle: methylcellulose (MC)): 105 % of control
T/C (endpoint: median survival time, dose: 500.0 mg/kg/injection, schedule: Q01DX Z (sc), vehicle: methylcellulose (MC)): 111 % of control
